TGI data for 14 molecules are collected here from PubChem BioAssay (NCI).

Common to all, as to assay: DTP human tumour cell line panel, 48 h
Assay [1] deals with OVCAR-3 ovarian.
The subject of assay [2] is SK-MEL-2 melanoma.
The test system of assay [3] is MDA-MB-231 breast.
Assay [4] concerns NCI-H460 lung.
Assay [5] concerns RPMI-8226 leukemia.
In assay [6] the test system is SK-MEL-28 melanoma.
Assay [7] concerns SW-620 colon.
In assay [8] the test system is HL-60(TB) leukemia.
Assay [9] concerns HT29 colon.
In assay [10] the test system is NCI/ADR-RES ovarian.
In assay [11] the test system is MDA-N.
The subject of assay [12] is NCI-H23 lung.
Assay [13] relates to MDA-MB-435.
The test system of assay [14] is SN12C renal.
Assay [15] relates to HCT-15 colon.
Assay [16] relates to SF-268 CNS.
Assay [17] has as its system MOLT-4 leukemia.
Assay [18] deals with RXF 393 renal.
Assay [19] deals with PC-3 prostate.
The subject of assay [20] is SNB-75 CNS.

Each structure is given as a SMILES string. Several values for one entry are separate records, joined by “and”; a condition that tells them apart may be missing. Equal entries are not always repeated.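 Five compound concentrations were applied to cells in 96-well plates for 48 hours; endpoints were derived by simple linear interpolation of the resulting dose-response curve. At the TGI there is no net growth.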

Regarding `CC(C)(C)OC(=O)NC(CS(=O)(=O)O)C(=O)O` (stereo not given), the TGI in assay [1], in assay [2], in assay [3], in assay [4], in assay [5] and in [6] was over 100 µM in each case. In addition, the TGI in assay [7], in [8], in [9], in assay [10], in assay [11] and in assay [12] was over 100 µM in each case. Besides, the TGI in [13], in [14], in assay [15], in assay [16], in assay [17] and in assay [18] was over 100 µM in each case. Further, the TGI in assay [19] and in [20] was over 100 µM each time.
In the case of `O=C1CSC(c2ccccc2O)N1c1nc2cc3sc(N4C(=O)CSC4c4ccccc4O)nc3cc2s1` (stereo not given), the TGI (commonly the concentration giving total growth inhibition) in [1] was over 100 µM; in assay [2], over 100 µM; in assay [3] it was over 100 µM; in assay [4] it was over 33.6 µM; in [5] it was over 100 µM; in [6], over 100 µM. The concentration for total growth inhibition (TGI) in assay [7], in assay [8], in assay [9], in [10], in [11] and in assay [12] was over 100 µM each time. Also, the TGI in assay [13], in [14], in assay [15], in assay [16], in assay [17] and in assay [18] was over 100 µM in each case. Also, the total growth inhibition concentration (TGI) in [19] and in [20] was over 100 µM in each case.
For the molecule `COC(=O)N/N=C(\c1ccccc1)c1ccc(OC)cc1`, the TGI in assay [1], in [2], in assay [3], in assay [4], in assay [5] and in assay [6] was over 100 µM in each case. The TGI in assay [7], in assay [8], in [9], in [10], in assay [11] and in assay [12] was over 100 µM throughout. Also, the TGI in assay [13], in assay [14], in [15], in assay [16], in assay [17] and in [18] was over 100 µM throughout. Also, the TGI in [19] and in [20] was over 100 µM throughout.
Take `N=c1oc2ccc(Cl)cc2cc1C(N)=O`: the TGI is 64.9 µM in assay [1]; 31.8 µM in [2]; 69 µM in assay [3]; over 100 µM in [4]; over 100 µM in [5]; over 100 µM in assay [6]. The TGI is over 100 µM in [7]; over 100 µM in assay [8]; over 100 µM in assay [9]; over 100 µM in assay [10]; 69.1 µM in assay [11]; 75.1 µM in [12]. The total growth inhibition concentration (TGI) in assay [13] is 82 µM; in [14], 45.1 µM; in [15] it was 69.2 µM; in assay [16], over 100 µM; in assay [17] it was over 100 µM; in [18], over 100 µM. In addition, the TGI in assay [19] is 72.8 µM; in assay [20], over 100 µM.
With `O=C(O)c1nc2ccccc2nc1NCc1ccc(F)cc1`, the TGI in assay [1], in [2], in assay [3], in [4], in [5] and in assay [6] was over 100 µM each time. The TGI in [7], in assay [8], in [9], in assay [10], in assay [11] and in [12] was over 100 µM throughout. Besides, the total growth inhibition concentration (TGI) in [13] is over 100 µM; in assay [14], over 100 µM; in [15], 42.8 µM; in assay [16], over 100 µM; in assay [17], over 100 µM; in assay [18] it was over 100 µM. Further, the total growth inhibition concentration (TGI) in assay [19] and in [20] was over 100 µM in each case.
With `NNc1ncc2c(n1)-c1ccccc1OC2`, the TGI in assay [1], in assay [2], in [3], in assay [4], in [5] and in assay [6] was over 100 µM throughout. Further, the TGI in [7] is over 100 µM; in assay [8] it was 45.8 µM; in assay [9] it was over 100 µM; in assay [10], over 100 µM; in [11] it was over 100 µM; in [12], over 100 µM. The TGI in [13], in assay [14], in assay [15], in [16], in assay [17] and in assay [18] was over 100 µM each time. Besides, the TGI in [19] and in [20] was over 100 µM throughout.
On to `CCCCCC(=Nc1n[nH]nc1C(N)=O)OCC`, for which the TGI in assay [1], in assay [2], in assay [3], in [4], in assay [5] and in [6] was over 100 µM in each case. Besides, the TGI in [7], in assay [8], in assay [9], in [10], in assay [11] and in assay [12] was over 100 µM in each case. For the same molecule, the total growth inhibition concentration (TGI) in [13], in assay [14], in assay [15], in assay [16], in assay [17] and in [18] was over 100 µM each time. The TGI in assay [19] and in assay [20] was over 100 µM in each case.
In the case of `COc1ccc(C(=C2C(=O)N(c3ccccc3)C(=O)C2=C(C)C)c2ccc(OC)cc2)cc1`, the TGI in assay [1] is over 100 µM; in assay [2] it was over 42.3 µM; in assay [3], over 35.4 µM; in [4] it was over 100 µM; in assay [5] it was over 43.7 µM; in assay [6] it was 20.7 µM. Also, the TGI was over 100 µM in assay [7]; 6.32 µM in [8]; 20.2 µM in assay [9]; over 100 µM in assay [10]; 4.11 µM in assay [11]; over 39.4 µM in assay [12]. Besides, the total growth inhibition concentration (TGI) in assay [13] was 4.9 µM; in [14], over 38.2 µM; in assay [15], over 32.5 µM; in [16], over 34.3 µM; in assay [17], over 39.7 µM; in [18] it was 5.9 µM. In addition, the total growth inhibition concentration (TGI) in assay [19] is over 40.1 µM; in assay [20], over 43.6 µM.
For `CN(C)CCCN1c2ccc([N+](=O)[O-])cc2CCc2cc([N+](=O)[O-])ccc21`, the concentration for total growth inhibition (TGI) in assay [1] is 30.2 µM and 30.5 µM; in assay [2] it was 36.9 µM and 32.4 µM; in assay [3], 30.3 µM and 22.6 µM; in [4], 30 µM and 26.2 µM; in assay [5], 55.3 µM and 34.1 µM; in assay [6], 30 µM and 29.3 µM. In addition, the TGI in assay [7] was 34 µM and 33.2 µM; in [8] it was 31 µM and 30.1 µM; in [9], 30.8 µM and 27.7 µM; in assay [10] it was 30.8 µM and 32.6 µM; in [11], 27.2 µM and 27 µM; in assay [12], 33.7 µM and 34.9 µM. Moreover, the TGI in [13] is 26.5 µM and 29.5 µM; in assay [14], 29.3 µM and 28.4 µM; in assay [15], 33 µM and 33.6 µM; in assay [16], 30.2 µM and 29 µM; in assay [17], 42.9 µM and 25.3 µM; in [18] it was 19.9 µM and 25.6 µM. Besides, the total growth inhibition concentration (TGI) is 31.3 µM and 27 µM in [19]; 24.8 µM and 29.3 µM in assay [20].
As to `COC(=O)c1ccccc1C1=C([N+](=O)[O-])C(c2cccc(Br)c2)C(C#N)=C(N)O1` (stereo not given), the TGI in assay [1] is 51.7 µM; in [2], over 100 µM; in [3] it was over 100 µM; in [4] it was over 100 µM; in assay [5], over 100 µM; in [6], over 100 µM. Also, the total growth inhibition concentration (TGI) in [7] is 71.4 µM; in assay [8], 70.6 µM; in [9], over 100 µM; in assay [10] it was 65.9 µM; in assay [11] it was over 100 µM; in assay [12], 88.2 µM. In addition, the TGI in [13] was 57.4 µM; in assay [14] it was over 100 µM; in assay [15], 41 µM; in assay [16], 93.3 µM; in assay [17], over 100 µM; in assay [18] it was 41.9 µM. Further, the TGI in [19] is over 100 µM; in assay [20], 92.6 µM.
For the molecule `CC1OC(OCC2OC(Oc3ccc(C4CC(=O)c5c(O)cc(O)cc5O4)cc3O)C(O)C(O)C2O)C(O)C(O)C1O` (stereo not given), the concentration for total growth inhibition (TGI) in assay [1], in [2], in [3], in [4], in assay [5] and in [6] was over 100 µM throughout. In addition, the concentration for total growth inhibition (TGI) in assay [7], in assay [8], in assay [9], in assay [10], in assay [11] and in assay [12] was over 100 µM in each case. In addition, the TGI in assay [13], in assay [14], in assay [15], in [16], in assay [17] and in assay [18] was over 100 µM each time. For the same molecule, the TGI in [19] and in assay [20] was over 100 µM each time.
As for `CCc1ccc(/C=C/C(=O)C2CN(CC)CCC2(O)/C=C/c2ccc(CC)cc2)cc1` (stereo not given), the TGI in assay [1] came out at 3.3 µM; in assay [2], 18.7 µM; in [3], 5.07 µM; in [4], 7.26 µM; in assay [5] it was 5.24 µM; in assay [6], 3.04 µM. Further, the TGI was 4.4 µM in assay [7]; over 24.6 µM in [8]; 3.79 µM in assay [9]; 12.4 µM in [10]; 10.6 µM in assay [11]; 11.5 µM in assay [12]. Moreover, the TGI worked out at 4.07 µM in [13]; 14.1 µM in [14]; 8.27 µM in [15]; 12 µM in assay [16]; 6.03 µM in assay [17]; 8.43 µM in assay [18]. Besides, the TGI in assay [19] is 12.4 µM; in assay [20] it was 21.6 µM.
In the case of `Cn1cnc2c1c(=O)n(CCNCCO)c(=O)n2C`, the TGI in [1], in assay [2], in [3], in assay [4], in assay [5] and in assay [6] was over 100 µM in each case. The TGI in [7], in [8], in [9], in [10], in [11] and in assay [12] was over 100 µM throughout. Also, the TGI in assay [13], in [14], in [15], in assay [16], in [17] and in [18] was over 100 µM in each case. Also, the TGI in assay [19] and in [20] was over 100 µM in each case.
With `CC(=O)OCC1OC(Oc2cc(C)c(O)cc2C/C=C(\C)CC/C=C(\C)C[C@@H](C=C(C)C)OC(C)=O)C(O)C(OC(C)=O)C1OC(C)=O` (stereo not given in full), the TGI in assay [1] is over 50 µM; in [2] it was over 50 µM; in assay [3], over 50 µM; in assay [4] it was over 50 µM; in [5] it was 24.1 µM; in assay [6], over 50 µM. Further, the TGI in [7] is over 50 µM; in [8], 21 µM; in [9], over 50 µM; in [10] it was over 50 µM; in assay [11], over 50 µM; in [12], over 50 µM. Further, the TGI in assay [13] is over 50 µM; in [14] it was over 50 µM; in [15], over 50 µM; in assay [16], over 50 µM; in [17] it was 20.5 µM; in assay [18], 34.4 µM. The TGI in assay [19] was over 50 µM; in assay [20], 48.2 µM.
